Assay results reported in article PMC10693631, “A multi-reservoir extruder for time-resolved serial protein crystallography and compound screening at X-ray free-electron lasers” (Nature Communications, 2023).

Target: T1, Krokinobacter eikastus rhodopsin 2 (KR2) (Dokdonia eikasta, UniProt N0DKS8)
T1 construct: gene NaR; light-driven sodium pump, membrane protein crystallised in monoolein LCP; expression and purification only cited
T1 sequence (N0DKS8 1-280): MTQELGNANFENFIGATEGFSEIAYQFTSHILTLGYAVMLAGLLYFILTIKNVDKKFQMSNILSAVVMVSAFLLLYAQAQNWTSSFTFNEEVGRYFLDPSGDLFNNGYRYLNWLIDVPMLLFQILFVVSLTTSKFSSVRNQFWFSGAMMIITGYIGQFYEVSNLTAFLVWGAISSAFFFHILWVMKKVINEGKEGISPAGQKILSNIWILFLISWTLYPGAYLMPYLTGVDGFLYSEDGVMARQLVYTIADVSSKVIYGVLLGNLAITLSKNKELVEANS
Assay: time-resolved serial femtosecond crystallography (XFEL, room temperature), dark state
Assay type: binding
Conditions: covalent, light state 1 us after 575 nm pulse deposited as 8CL8, crystals shifted to pH 9.0, 150 mM NaCl

For CC1=C(/C=C/C(C)=C/C=C/C(C)=C/C=O)C(C)(C)CCC1 [retinal], the “time-resolved serial femtosecond crystallography (XFEL, room temperature), dark” value was “examining structural changes after photoactivation of its retinal chromophore”.
